Results as given in US20240027453A1, “METHOD FOR DETECTION AND QUANTITATIVE MONITORING OF INFECTIONS WITH HERPESVIRUSES” (The Trustees of Princeton University, priority 2020, published 2024).

How the values were obtained:
HSV-1 [1] = experiment: TRUSTED PRM assay of HSV-1 viral protein levels after small molecule treatment; type: cell-based; conditions: for DBP (P04296) protein level / TK (P03176) protein level / UL8 (P10192) protein level / UL12 (P04294) protein level / UL30 (P04293) protein level / UL42 (P10226) protein level / US3 (P04413) protein level: E; for DBP (P04296) protein level / TK (P03176) protein level / UL8 (P10192) protein level / UL12 (P04294) protein level / UL30 (P04293) protein level / UL42 (P10226) protein level / US3 (P04413) protein level / ICP0 (P08393) protein level / ICP4 (P08392) protein level / ICP22 (P04485) protein level / UL54 (P10238) protein level / CVC2 (P10209) protein level / UL26 (P10210) protein level / UL48 (P06492) protein level / UL49 (P10233) protein level / gB (P10211) protein level / gI (P06487) protein level: FIG. 8A; for ICP0 (P08393) protein level / ICP4 (P08392) protein level / ICP22 (P04485) protein level / UL54 (P10238) protein level: IE; for CVC2 (P10209) protein level / UL26 (P10210) protein level / UL48 (P06492) protein level / UL49 (P10233) protein level / gB (P10211) protein level / gI (P06487) protein level: L
Protocol: (§1) In example herpesvirus PRM assay methods shown herein, cell pellets were lysed in 2% SDS, 100 mM NaCl, 0.5 mM EDTA, 50 mM Tris, pH 8.2, and 50 μg of protein was reduced and alkylated with 25 mM TCEP and 50 mM CAM respectively for 20 min at 70° C. Proteins were then precipitated via methanol chloroform precipitation (Wessel & Flugg, Anal Biochem. 138(1):141-143, 1984), resuspended in 50 mM HEPES, pH 8.2 and digested overnight with trypsin (50:1 protein:enzyme w/w ratio). Digested peptides were desalted by SDB-RPS StageTip as previously described (Lum et al., Cell Syst., 7(6):[…], 2018; Greco et al., Methods Mol Biol 1410:39-63, 2016; Federspiel & Cristea, Methods Mol Biol., 1977:115-143, 2019).
(§2) Peptides (1.0 μg on column) were analyzed by LC-MS/MS using a Dionex Ultimate 3000 UHPLC coupled online to an EASYSpray ion source and a Q Exactive HF. Peptides were separated on an EASYSpray C18 column (75 μm×25 cm) heated to 50° C. using a linear gradient of 5% B to 32% B over 60 min at a flow rate of 250 nL/min and were ionized at 1.7 kv. Mobile phase A consisted of 0.1% FA in H2O and mobile phase B consisted of 0.1% FA, 2.9% H2O in ACN.
(§3) The PRM method was controlled by a peptide inclusion list with retention time windows of 6 min for selected precursor ions.
(§4) The PRM assay was developed and analyzed using the open-source software Skyline (Maclean et al., Bioinformatics 26(7):966-968, 2010). Summed area under the curve of 3-4 transitions per peptide was used for quantitation. Targeted peptides were normalized to host protein loading control peptides. Peptide values for each sample were scaled to the average of each peptide across all runs. The average of multiple peptides was used as the inferred value for the protein measurement when more than one peptide was quantified (Federspiel et al., PLoS Biol. 17(9):e3000437. Doi: 10.1371/journal.pbio.3000437). PRM quantitation data were graphed using the Python Seaborn and Matplotlib libraries.
(§5) MRC5 primary human fibroblasts (HFs) (ATCC CCL-171) were used as the model system for HSV-1 and HCMV infections and were cultured in complete growth medium (DMEM supplemented with 10% fetal bovine serum and 1% penicillin-streptomycin antibiotics) at 37° C. and 5% CO2. iSLK.219 cells harboring latent KSHV (a gift from Dr. Britt Glaunsinger, University of California, Berkeley) were grown in complete growth medium supplemented with 500 μg/ml hygromycin (ThermoFisher Scientific, 10687010) at 37° C. and 5% CO2. All cells were used for experiments within a maximum of 10 passages.
(§6) Wild type HSV-1 strain 17+ (a gift from Beate Sodeik, Hannover Medical School, Hannover, Germany) was propagated as previously described (Diner et al., 2015). Briefly, PO stocks were generated by electroporating pBAC-HSV-1 into U-2 OS cells. […] In a similar manner, wild type HCMV strain AD169 was produced from BAC electroporation into HFs and working stocks were propagated by infecting HFs at a low level. In both cases, cell-associated virus was released by sonication, combined with supernatant virus, then concentrated by ultracentrifugation (20,000 rpm, 2 hours, 4° C. with SW28 swinging bucket rotor [Beckman Coulter]) over a 10% ficoll (HSV-1) or 20% sorbitol (HCMV) cushion. Virus stock titers were determined by plaque assay for HSV-1 or tissue culture infectious dose (TCID50) for HCMV and infections were performed at a multiplicity of infection (MOI) of 3.
(§7) 12 hours prior to virus infection or reactivation, cells were treated with either the small molecule drug or DMSO/PBS control at an equivalent volume. […] For infection cycles lasting longer than 24 hours, small molecule drugs were re-added to the cell culture medium every 24 hours. Upon collection, cells were rinsed with PBS, scraped into a microcentrifuge tube, pelleted by centrifugation, and rinsed again with PBS.

HSV-1 [2] = conditions: in MRC5 cells; cited from earlier work
HCMV [3] = type: cell-based
Protocol: as §1, §2, §3, §4, §5, §6, §7

iSLK.219 cell line = experiment: Toxicity to the iSLK.219 cell line; type: cell-based; conditions: 50 μM
HCMV [4] = conditions: cited from earlier work
[5] = 1 μM, by and after 12 HPI, vs DMSO

## Nc1nc2c(ncn2COCCO)c(=O)[nH]1 [ACV, acyclovir]
HSV-1 [1]
  HSV-1 late gene expression: reduction
HSV-1 [1]; 1 μM
  effect on IE HSV-1 protein levels: little effect
  levels of HSV-1 proteins DBP, UL42, UL30, UL8, UL12 and UL48: significant reduction
HSV-1 [1]; [5]
  decrease in levels of E HSV-1 proteins: ~20%
  decrease in levels of L HSV-1 proteins: ~35%
HSV-1 [1]; 6 HPI
  expression of IE and E HSV-1 genes: increase
HSV-1 [2]
  IC50: 2 to 3 µM

## Oc1ccc(/C=C/c2cc(O)cc(O)c2)cc1 [Res]
HSV-1 [1]; timepoint 2
  DBP (P04296) protein level: 0.02121
  TK (P03176) protein level: 0.03832
  UL8 (P10192) protein level: 0.0171
  UL12 (P04294) protein level: 0.01763
  UL30 (P04293) protein level: 0.03876
  UL42 (P10226) protein level: 0.003041
  US3 (P04413) protein level: 0.01605
  ICP0 (P08393) protein level: 0.1622
  ICP4 (P08392) protein level: 0.1073
  ICP22 (P04485) protein level: 0.015
  UL54 (P10238) protein level: 0.0667
  CVC2 (P10209) protein level: 0.01003
  UL26 (P10210) protein level: 0.003453
  UL48 (P06492) protein level: 0.007183
  UL49 (P10233) protein level: 0.009894
  gB (P10211) protein level: 0.0128
  gI (P06487) protein level: 0.00718
HSV-1 [1]; timepoint 6
  DBP (P04296) protein level: 0.9121
  TK (P03176) protein level: 0.9707
  UL8 (P10192) protein level: 1.056
  UL12 (P04294) protein level: 0.7418
  UL30 (P04293) protein level: 1.353
  UL42 (P10226) protein level: 0.2866
  US3 (P04413) protein level: 0.616
  ICP0 (P08393) protein level: 0.5333
  ICP4 (P08392) protein level: 1.063
  ICP22 (P04485) protein level: 0.7429
  UL54 (P10238) protein level: 0.9415
  CVC2 (P10209) protein level: 0.2592
  UL26 (P10210) protein level: 0.1986
  UL48 (P06492) protein level: 0.1816
  UL49 (P10233) protein level: 0.428
  gB (P10211) protein level: 0.5098
  gI (P06487) protein level: 0.5705
HSV-1 [1]; timepoint 12
  TK (P03176) protein level: 1.24
  UL8 (P10192) protein level: 0.9123
  UL12 (P04294) protein level: 0.8878
  UL30 (P04293) protein level: 1.001
  UL42 (P10226) protein level: 0.7743
  US3 (P04413) protein level: 1.156
  ICP0 (P08393) protein level: 1.108
  ICP4 (P08392) protein level: 1.101
  ICP22 (P04485) protein level: 1.241
  UL54 (P10238) protein level: 1.026
  CVC2 (P10209) protein level: 0.7067
  UL26 (P10210) protein level: 0.7549
  UL48 (P06492) protein level: 0.8411
  UL49 (P10233) protein level: 1.283
  gB (P10211) protein level: 1.286
  gI (P06487) protein level: 0.956
HSV-1 [1]; timepoint 18
  TK (P03176) protein level: 0.9806
  UL8 (P10192) protein level: 0.8259
  UL12 (P04294) protein level: 0.7425
  UL30 (P04293) protein level: 0.7926
  UL42 (P10226) protein level: 0.7837
  US3 (P04413) protein level: 0.9457
  ICP0 (P08393) protein level: 1.159
  ICP4 (P08392) protein level: 1.049
  ICP22 (P04485) protein level: 1.213
  UL54 (P10238) protein level: 0.8148
  CVC2 (P10209) protein level: 0.601
  UL26 (P10210) protein level: 0.8898
  UL48 (P06492) protein level: 0.9275
  gB (P10211) protein level: 1.306
  gI (P06487) protein level: 1.003

## Oc1ccc(/C=C/c2cc(O)cc(O)c2)cc1 [trans-Resveratrol]
HSV-1 [1]; 10 μM EX-527, 50 μM trans-Resveratrol
  levels of HSV-1 viral transactivators ICP4 and UL48 (VP16): downregulated
HSV-1 [1]; 50 μM
  decrease in HSV-1 protein levels: 30-40%
HCMV [3]
  HCMV UL122 (IE2) and UL123 (IE1) levels: decreases
HCMV [3]; 24 HPI, […] CAY10602, 50 μM trans-Resveratrol
  HCMV UL123 levels: unchanged
HCMV [3]; 48 HPI, […] CAY10602, 50 μM trans-Resveratrol
  HCMV UL26 levels: decreased
HCMV [3]; by 48 HPI
  HCMV viral protein production: global reduction
HCMV [3]; by 72 HPI, […] CAY10602, 50 μM trans-Resveratrol
  HCMV UL99 levels: robustly decreased
HCMV [3]; by 120 HPI, […] CAY10602, 50 μM trans-Resveratrol
  global decrease in HCMV viral protein levels: ~70%
iSLK.219 cell line
  toxicity to the iSLK.219 cell line: toxic
HCMV [4]; […] CAY10602, 50 μM trans-Resveratrol
  decrease in HCMV titers: ~50%
HCMV [4]
  HCMV titers: decreased
